# Measurements taken from patent publication US6872818B2, “Ammonium sulfate for neutralization of inhibitory effects” (QIAGEN GmbH, priority 2001, dated 2005).
# Tests used:
# cDNA synthesis = assay: Reverse transcription / PCR in presence of SYBRGREEN dye; assay type: biochemical; conditions: final concentration of 100×
# Method: Reverse transcription reactions containing 0×, 0.001×, 0.01×, 0.1×, 1×, 10× and 100× SYBRGREEN® dye were performed. In order to quantify the generated cDNA after RT-reaction, 2 μl of the RT reaction was transferred to a 20 μl PCR mixture. PCR products were analyzed by gel-electrophoresis.
# RT-PCR reaction = conditions: final concentration of 1 mM
# Method: In order to quantify the generated cDNA after RT reactions, 2 μl of each RT reaction mixture was transferred to a 20 μl PCR mixture.
Structure (SMILES),cDNA synthesis (cDNA synthesis),reduction in signals produced from an RT-PCR reaction (RT-PCR reaction)
CCCN(CCCN(C)C)c1cc(/C=C2/Sc3ccccc3N2C)c2ccccc2[n+]1-c1ccccc1 [SYBRGREEN® dye],total loss of cDNA synthesis,–
NCCCNCCCCNCCCN [spermine],–,up to 4 fold
